From patent US10233415B1, “Microfluidics cell culture device” (The Regents of the University of California, priority 2013, dated 2019)
Where two headings read alike, the source gives them in different places.

Key:
[1] = test system: hiPSC-CM derived cardiac tissue (WTC CMs) in the cardiac MPS; experiment: Cardiac MPS beat rate (motion tracking) drug response; assay type: cell-based, human; settings: for effect on beats per minute (BPM): dose response
Text: A cardiac MPS that incorporates an in vitro 3D model of the human myocardium consisting of aligned CMs derived from hiPS cells was designed, fabricated and characterized with various in and ex situ monitoring tools. […] To characterize the functionality of the cardiac model, a motion tracking method capable of massive parallelization and high throughput analysis based on bright field microscopy as well as a custom made MEA enabling electrophysiological measurements inside the MPS was developed.
As an alternative to MEAs, a computational motion tracking method capable of performing high throughput analysis was developed. The computational motion tracking method analyzed the beating motion of cardiac tissue based on simple bright field movies (FIGS. 6A-C).
Drugs from classes that target a different physiological effect (i.e. ion channel, stimulant) were chosen, and the IC50 or EC50 values were determined.

[2] = test system: LQT3 hiPSC-CM derived cardiac tissue in the MPS; experiment: LQT3 cardiac tissue in the MPS, beat frequency response; assay type: cell-based, human
Procedure: When fed continuously the tissue remained viable and functional for more than one month. Healthy and LQTS hiPSC-CM-derived cardiac tissue in the MPS were viable and amenable to continuous monitoring (e.g., MEA) and sampling for over 4 weeks. Beating tissues were created and loaded from multiple iPS cell lines, a disease cell line (LQT3), and the GCaMP6 isogenic reporter cell line.
FIG. 7. […] (B) Time dependent effect of 1 μM Isoproterenol (ISO) on bpm. * p<0.05 vs baseline.

adult human slice = adult human slice contractility; read-out: EC50 for the effect on adult human slice contractility; cited from earlier work

With Cc1cccc(CCN2CCC(C(=O)c3ccc(NS(C)(=O)=O)cc3)CC2)n1 [E-4031] the IC50 ([1]; cardiac MPS, beat rate, read-out: IC50, dose dependent decrease of beat rate / beats per minute) was 392 nM.

In the case of CC(C)NCC(O)c1ccc(O)c(O)c1 (stereo not drawn) [Isoproterenol], the beat frequency ([2]; 100 nM concentration) is reported as “no effect”, the beat frequency ([2]; 10 min exposure to 1 μM) is reported as “approximately doubled” and the EC50 ([1]; Homo sapiens, cardiac MPS, beat rate, read-out: EC50, concentration dependent increase on absolute beating (beats per minute)) is reported as 315 nM. For the same compound, the “effect on beats per minute (BPM)” value ([1]; cardiac MPS) was “dose-dependent increase”, the beat rate ([1]; subsequent exposure to 1 μM, same device, after at least 48 hours wash) was “increased the beat rate” and the EC50 (adult human slice) was 100 to 200 nM.

COCCc1ccc(OCC(O)CNC(C)C)cc1 (stereo not drawn) [Metoprolol] gave an IC50 ([1]; Homo sapiens, cardiac MPS, beat rate, read-out: IC50, dose dependent decrease of beat rate) of 244000 nM.

For COc1ccc(CCN(C)CCCC(C#N)(c2ccc(OC)c(OC)c2)C(C)C)cc1OC (stereo not drawn) [Verapamil], the IC50 ([1]; Homo sapiens, read-out: IC50, dose dependent decrease of beat rate / beats per minute) was 950 nM, the spontaneous beating ([1]; at high doses) was “abolished spontaneous beating” and the “effect on beats per minute (BPM)” value ([1]; cardiac MPS) was “dose-dependent decrease”. The beat rate ([1]; exposure to 1 nM, multiple exposures on the same device) was “decreased the beat rate”.
